In US20240342156A1, “METHODS FOR TREATING PAIN” (Xenon Pharmaceuticals Inc., priority 2019, published 2024):
Read-outs that look alike come from different tables or passages of the source.

Key:
[1] = tested on: rat spinal nerve ligation (SNL)/Chung model of neuropathic pain; test: Spinal nerve ligation (SNL)/Chung model, thermal allodynia, cold plate test on lesioned paw; format: in vivo
Method: Objective: The efficacy of Compound A was assessed using the rat spinal nerve ligation (SNL)/Chung model of neuropathic pain. The SNL model in rats was developed as described previously (Chung J M, Kim H K, Chung K. “Segmental spinal nerve ligation model of neuropathic pain.” Methods Mol. Med. 99 (2004) 35-45).
Study Design. Briefly, on Day 0, von Frey and cold plate tests were used for baseline measurements of tactile and cold allodynia respectively. Post-baseline measurements, rats (171-209 g male Sprague Dawley) were anesthetized and an incision at the L4-S2 level was performed to expose the left L5 nerve. […] The wound was then sutured and the rats were allowed to recover. On Day 13, post-surgery baselines for tactile and cold allodynia were measured to verify neuropathic pain. Animals were assigned to treatment groups based on the post-surgery baseline score.
Dosing: For efficacy testing, Compound A was dosed orally once a day for 5 consecutive days from Day 14-18.
The cold plate apparatus was maintained at 4±1° C. and was surrounded by an acrylic glass enclosure. Rats were placed on the plate for a period of 5 minutes. The latency to 1st paw-withdrawal, total number of paw withdrawals, and total duration of withdrawal responses were recorded for the surgery hind paw.

[2] = Crossover study with pharmacokinetic analysis, single oral dose in healthy male subjects; format: in vivo, human; details: for concentration at 6 days: oral, subjects who received placebo in Period 2
Text: The pharmacokinetics (PK), safety, and tolerability of single doses of Compound A in healthy right-handed male human subjects were investigated in a randomized, double-blind, placebo-controlled, transcranial magnetic stimulation (TMS) crossover study.
An objective of the study was to evaluate the safety, tolerability, and pharmacokinetics of single doses of Compound A in healthy male subjects.
Twenty healthy right-handed male subjects were enrolled and randomized in a blinded fashion to receive a single oral dose of 20 mg Compound A or placebo (1:1 randomization ratio) on Day 1, then were crossed over to receive a single dose of the other treatment on Day 7.
Subjects were screened within 27 days prior to entering the study on Day 1. For Period 1, subjects were admitted to the study unit and dosed on Day 1, and discharged on Day 2. For Period 2, following a washout of 6 days, the same subjects were again admitted to the study unit and dosed on Day 7, and discharged on Day 8. All subjects returned to the clinical unit for an outpatient visit on Day 14, and received a follow-up telephone call on Day 37.
Subjects were dosed in a fed state, but the timing of dosing relative to meals was changed during the study, and varied between a high fat or standard meal eaten either 2 h or 30 minutes prior to dosing, and a high fat or standard meal eaten 1 h or 2.5 h after dosing.
The PK parameters for this study were summarized in two ways. Firstly, PK parameters were calculated where possible using the PK samples collected during each 24 h sampling period for Period 1 and Period 2 separately. Secondly, PK parameters were determined using samples beyond the 24 h sampling period (i.e., from Day 7/8 and/or Day 14). For subjects who received Compound A in the first period, PK samples taken prior to placebo treatment provided additional PK timepoints at >24 h. For subjects who received Compound A in the second period, there was no >24 h PK timepoint until a Day 14 PK sample was added. […] The full PK profile data set consists of the 16 subjects for whom PK samples were taken at >24 h post-dose. For discussion of the PK parameters below, the full PK profile data set was generally used, because it allowed more accurate estimation of PK parameters.
Initially, subjects were dosed 2 hours after a high fat meal with a relatively high fat lunch provided 1 hour after dosing. After blinded review of the PK profiles in the initial 8 subjects, the fat content of the lunch was reduced in an attempt to reduce the time to Tmax. In addition, the timing of the meal relative to dose was changed from 2 hours prior, to 30 minutes prior to dose and subsequently the fat content of the breakfast was reduced. The timing and type of meal for each subject is specified in Table 8. […] As such the PK data is presented without categorization according to meal content, or relative timing of the meal.

[3] = Day 18 at 2 h, 8 mg/kg p.o. once daily Day 14-18
[4] = Day 18 at 2 h, 16 mg/kg p.o. once daily Day 14-18
[5] = Day 18 at 2 h, 24 mg/kg p.o. once daily Day 14-18
[6] = 20 mg single oral dose, fed, Full PK Profile (N = 16)
[7] = 20 mg single oral dose, fed, Overall (N = 20)
[8] = 20 mg single oral dose, fed, Period 1 (N = 10)
[9] = 20 mg single oral dose, fed, Period 2 (N = 10)
[10] = 20 mg single oral dose, full PK data set

Clast (ng/mL), Mean ± SD [2, 6]: 4.52 ± 1.82 ng/mL
Clast (ng/mL), Range [2, 6]: 1.33 to 7.67 ng/mL
Tlast (h), Mean ± SD [2, 6]: 235 ± 81.5 h
Tlast (h), Range [2, 6]: 142 to 360 h
Clast (ng/mL), Mean ± SD [2, 7]: 16.4 ± 4.69 ng/mL
Clast (ng/mL), Range [2, 7]: 7.1 to 27.8 ng/mL
Tlast (h), Mean ± SD [2, 7]: 23.8 ± 0.299 h
Tlast (h), Range [2, 7]: 23.1 to 24.3 h
Tmax (h), Median [2, 7]: 7.83 h
Tmax (h), Range [2, 7]: 1.92 to 12 h
Clast (ng/mL), Mean ± SD [2, 8]: 16.4 ± 5.61 ng/mL
Clast (ng/mL), Range [2, 8]: 10.1 to 27.8 ng/mL
Tlast (h), Mean ± SD [2, 8]: 23.8 ± 0.375 h
Tlast (h), Range [2, 8]: 23.1 to 24.3 h
Clast (ng/mL), Mean ± SD [2, 9]: 16.4 ± 3.87 ng/mL
Clast (ng/mL), Range [2, 9]: 7.1 to 21.3 ng/mL
Tlast (h), Mean ± SD [2, 9]: 23.8 ± 0.213 h
Tlast (h), Range [2, 9]: 23.5 to 24.1 h
extrapolated area (% AUCextrap), median [2, 10]: 19.9%
extrapolated area (% AUCextrap), range [2, 10]: 10.6-40.5%
concentration at 6 days ([2]; male, human, plasma, 20 mg, read-out: Compound A levels after washout between periods, mean): 3.1 ng/mL
concentration at 6 days ([2]; male, human, plasma, 20 mg, read-out: Compound A levels after washout between periods, range): 1.3 to 6.8 ng/mL
concentration at 2 h ([2]; male, human, plasma, po, 20 mg, 2 h timepoint, 20 mg single oral dose, full PK profile, read-out: mean SD plasma concentration): 15.9 ± 21.4 ng/mL
concentration at 4 h ([2]; male, human, plasma, po, 20 mg, 4 h timepoint, 20 mg single oral dose, full PK profile, read-out: mean SD plasma concentration): 30.2 ± 21.1 ng/mL
concentration at 6 h ([2]; male, human, plasma, po, 20 mg, 6 h timepoint, 20 mg single oral dose, full PK profile, read-out: mean SD plasma concentration): 42.1 ± 19.1 ng/mL
AUC(0-inf) ([2]; male, human, plasma, 20 mg single oral dose, fed, Full PK Profile Data Set (N = 16), read-out: AUCinf (ng*h/mL), Range): 1920 to 7390 ng·h/mL
AUC(0-t) ([2]; male, human, plasma, 20 mg single oral dose, fed, Full PK Profile Data Set (N = 16), read-out: AUClast (ng*h/mL), Range): 1580 to 4400 ng·h/mL
CL/F ([2]; male, human, plasma, 20 mg single oral dose, fed, Full PK Profile Data Set (N = 16), read-out: CL/F normalized (mL/h/kg), Range): 40.3 to 136 mL/h/kg
MRT inf ([2]; male, human, plasma, 20 mg single oral dose, fed, Full PK Profile Data Set (N = 16), read-out: MRTinf (h), Range): 33 to 304 h
MRT last ([2]; male, human, plasma, 20 mg single oral dose, fed, Full PK Profile Data Set (N = 16), read-out: MRTlast (h), Range): 48.2 to 122 h
Vd/F ([2]; male, human, plasma, 20 mg single oral dose, fed, Full PK Profile Data Set (N = 16), read-out: Vz/F normalized (L/kg), Range): 6.4 to 33.8 L/kg
Tmax ([2]; male, human, plasma, 20 mg single oral dose, fed, Overall (N = 20), read-out: Tmax (h), Median): ~8 h
Compound: Cc1cc(N2CCc3cc(F)ccc3C2)cc(C)c1NC(=O)CC(C)(C)C [Compound A, N-[4-(6-fluoro-3,4-dihydro-TH-isoquinolin-2-yl)-2,6-dimethylphenyl]-3,3-dimethylbutanamide]
Latency to first paw-withdrawal (s), Mean ± s.e.m. ([1]; Day 14 at 2 h, 8 mg/kg p.o.): 226.8 ± 29.4 s
Latency to first paw-withdrawal, compared with Vehicle (p.o.), Δ% ([1]; Day 14 at 2 h, 8 mg/kg p.o.): +74%
Number of withdrawal responses, Mean ± s.e.m. ([1]; Day 14 at 2 h, 8 mg/kg p.o.): 2.1 ± 0.8
Number of withdrawal responses, compared with Vehicle (p.o.), Δ% ([1]; Day 14 at 2 h, 8 mg/kg p.o.): −79%
Total duration of withdrawal responses (s), Mean ± s.e.m. ([1]; Day 14 at 2 h, 8 mg/kg p.o.): 3.4 ± 3.4 s
Total duration of withdrawal responses, compared with Vehicle (p.o.), Δ% ([1]; Day 14 at 2 h, 8 mg/kg p.o.): +55%
Latency to first paw-withdrawal (s), Mean ± s.e.m. ([1]; Day 14 at 2 h, 16 mg/kg p.o.): 214.9 ± 29.2 s
Latency to first paw-withdrawal, compared with Vehicle (p.o.), Δ% ([1]; Day 14 at 2 h, 16 mg/kg p.o.): +65%
Number of withdrawal responses, Mean ± s.e.m. ([1]; Day 14 at 2 h, 16 mg/kg p.o.): 3.0 ± 1.7
Number of withdrawal responses, compared with Vehicle (p.o.), Δ% ([1]; Day 14 at 2 h, 16 mg/kg p.o.): −70%
Total duration of withdrawal responses (s), Mean ± s.e.m. ([1]; Day 14 at 2 h, 16 mg/kg p.o.): 0.8 ± 0.7 s
Total duration of withdrawal responses, compared with Vehicle (p.o.), Δ% ([1]; Day 14 at 2 h, 16 mg/kg p.o.): −64%
Latency to first paw-withdrawal (s), Mean ± s.e.m. ([1]; Day 14 at 2 h, 24 mg/kg p.o.): 280.0 ± 20.0 s
Latency to first paw-withdrawal, compared with Vehicle (p.o.), Δ% ([1]; Day 14 at 2 h, 24 mg/kg p.o.): +115%
Number of withdrawal responses, Mean ± s.e.m. ([1]; Day 14 at 2 h, 24 mg/kg p.o.): 0.9 ± 0.9
Number of withdrawal responses, compared with Vehicle (p.o.), Δ% ([1]; Day 14 at 2 h, 24 mg/kg p.o.): −91%
Total duration of withdrawal responses (s), Mean ± s.e.m. ([1]; Day 14 at 2 h, 24 mg/kg p.o.): 0.0 ± 0.0 s
Total duration of withdrawal responses, compared with Vehicle (p.o.), Δ% ([1]; Day 14 at 2 h, 24 mg/kg p.o.): −100%
thermal allodynia endpoint, comparison with morphine (128 mg/kg) ([1]; Day 18 (FIGS. 7-9), at both 16 and 24 mg/kg): outperformed morphine
Latency to first paw-withdrawal (s), Mean ± s.e.m. [1, 3]: 180.4 ± 26.5 s
Latency to first paw-withdrawal, compared with Vehicle (p.o.), Δ% [1, 3]: +92%
Number of withdrawal responses, Mean ± s.e.m. [1, 3]: 7.7 ± 2.8
Number of withdrawal responses, compared with Vehicle (p.o.), Δ% [1, 3]: −29%
Total duration of withdrawal responses (s), Mean ± s.e.m. [1, 3]: 1.3 ± 0.9 s
Total duration of withdrawal responses, compared with Vehicle (p.o.), Δ% [1, 3]: −88%
Latency to first paw-withdrawal (s), Mean ± s.e.m. [1, 4]: 257.0 ± 23.5 s
Latency to first paw-withdrawal, compared with Vehicle (p.o.), Δ% [1, 4]: +173%
Number of withdrawal responses, Mean ± s.e.m. [1, 4]: 1.3 ± 2.8
Number of withdrawal responses, compared with Vehicle (p.o.), Δ% [1, 4]: −88%
Total duration of withdrawal responses (s), Mean ± s.e.m. [1, 4]: 0.0 ± 0.0 s
Total duration of withdrawal responses, compared with Vehicle (p.o.), Δ% [1, 4]: −100%
Latency to first paw-withdrawal (s), Mean ± s.e.m. [1, 5]: 263.8 ± 24.3 s
Latency to first paw-withdrawal, compared with Vehicle (p.o.), Δ% [1, 5]: +180%
Number of withdrawal responses, Mean ± s.e.m. [1, 5]: 0.6 ± 0.5
Number of withdrawal responses, compared with Vehicle (p.o.), Δ% [1, 5]: −94%
Total duration of withdrawal responses (s), Mean ± s.e.m. [1, 5]: 0.0 ± 0.0 s
Total duration of withdrawal responses, compared with Vehicle (p.o.), Δ% [1, 5]: −100%
